Data taken from publication PMC9898036, “VIP152 is a selective CDK9 inhibitor with pre-clinical in vitro and in vivo efficacy in chronic lymphocytic leukemia” (Leukemia, 2022).
Where two headings read alike, the source gives them in different places.

Experiments:
Test in all cases: DiscoverX KINOMEscan kinase profiling (468 assays)
Format in all cases: binding
[1] = molecular target: human kinome (Homo sapiens, UniProt O14757); conditions: CHEK1; 100 nM; read-out: Percent Control
Summary of the method: (§1)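 DNA-tagged kinases competed for immobilized biotinylated ligands on streptavidin magnetic beads, with bound kinase quantified by qPCR. VIP152 in DMSO was tested against a DMSO control.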

[2] = molecular target: human kinome (Homo sapiens, UniProt O14965); conditions: AURKA; 100 nM; read-out: Percent Control
Summary of the method: as §1

[3] = molecular target: human kinome (Homo sapiens, UniProt O60674); conditions: JAK2(JH1domain-catalytic); 100 nM; read-out: Percent Control
Summary of the method: as §1

[4] = molecular target: human kinome (Homo sapiens, UniProt O75914); conditions: read-out: Percent Control
Summary of the method: as §1

[5] = molecular target: human kinome (Homo sapiens, UniProt P06241); conditions: FYN; 100 nM; read-out: Percent Control
Summary of the method: as §1

[6] = molecular target: human kinome (Homo sapiens, UniProt P08069); conditions: IGF1R; 100 nM; read-out: Percent Control
Summary of the method: as §1

[7] = molecular target: human kinome (Homo sapiens, UniProt P08581); conditions: MET; 100 nM; read-out: Percent Control
Summary of the method: as §1

[8] = molecular target: human kinome (Homo sapiens, UniProt P11802); conditions: 100 nM, read-out: Percent Control
Summary of the method: as §1

[9] = molecular target: human kinome (Homo sapiens, UniProt P23458); conditions: 100 nM, read-out: Percent Control
Summary of the method: as §1

[10] = molecular target: human kinome (Homo sapiens, UniProt P29376); conditions: LTK; 100 nM; read-out: Percent Control
Summary of the method: as §1

[11] = molecular target: human kinome (Homo sapiens, UniProt P45984); conditions: JNK2 (Entrez MAPK9); 100 nM; read-out: Percent Control
Summary of the method: as §1

[12] = molecular target: human kinome (Homo sapiens, UniProt P68400); conditions: CSNK2A1; 100 nM; read-out: Percent Control
Summary of the method: as §1

[13] = molecular target: human kinome (Homo sapiens, UniProt Q12866); conditions: MERTK; 100 nM; read-out: Percent Control
Summary of the method: as §1

[14] = molecular target: human kinome (Homo sapiens, UniProt Q13043); conditions: MST1 (Entrez STK4); 100 nM; read-out: Percent Control
Summary of the method: as §1

[15] = molecular target: human kinome (Homo sapiens, UniProt Q13153); conditions: read-out: Percent Control
Summary of the method: as §1

[16] = molecular target: human kinome (Homo sapiens, UniProt Q13177); conditions: read-out: Percent Control
Summary of the method: as §1

[17] = molecular target: human kinome (Homo sapiens, UniProt Q13554); conditions: CAMK2B; 100 nM; read-out: Percent Control
Summary of the method: as §1

[18] = molecular target: human kinome (Homo sapiens, UniProt Q13627); conditions: DYRK1A; 100 nM; read-out: Percent Control
Summary of the method: as §1

[19] = molecular target: human kinome (Homo sapiens, UniProt Q15375); conditions: EPHA7; 100 nM; read-out: Percent Control
Summary of the method: as §1

[20] = molecular target: human kinome (Homo sapiens, UniProt Q16512); conditions: read-out: Percent Control
Summary of the method: as §1

[21] = molecular target: human kinome (Homo sapiens, UniProt Q6P2M8); conditions: CAMK1B (Entrez PNCK); 100 nM; read-out: Percent Control
Summary of the method: as §1

[22] = molecular target: human kinome (Homo sapiens, UniProt Q6ZWH5); conditions: read-out: Percent Control
Summary of the method: as §1

[23] = molecular target: human kinome (Homo sapiens, UniProt Q99683); conditions: ASK1 (Entrez MAP3K5); 100 nM; read-out: Percent Control
Summary of the method: as §1

[24] = molecular target: human kinome (Homo sapiens, UniProt Q9H093); conditions: kinase SNARK (Entrez NUAK2); compound concentration 1000 nM; read-out: Percent Control
Summary of the method: as §1

[25] = molecular target: human kinome (Homo sapiens, UniProt Q9H4B4); conditions: read-out: Percent Control
Summary of the method: as §1

[26] = molecular target: human kinome (Homo sapiens, UniProt Q9HBY8); conditions: kinase SGK2 (Entrez SGK2); compound concentration 1000 nM; read-out: Percent Control
Summary of the method: as §1

[27] = molecular target: human kinome (Homo sapiens, UniProt Q9P286); conditions: read-out: Percent Control
Summary of the method: as §1

[28] = molecular target: human kinome (Homo sapiens, UniProt Q9UQM7); conditions: CAMK2A; 100 nM; read-out: Percent Control
Summary of the method: as §1

[29] = molecular target: human kinome (Homo sapiens, UniProt Q9Y5S2); conditions: MRCKB (Entrez CDC42BPB); 100 nM; read-out: Percent Control
Summary of the method: as §1

[30] = molecular target: human kinome (Homo sapiens, UniProt Q9Y6E0); conditions: MST3 (Entrez STK24); 100 nM; read-out: Percent Control
Summary of the method: as §1

human kinome (Homo sapiens, UniProt P11802), sequence (P11802 whole entry): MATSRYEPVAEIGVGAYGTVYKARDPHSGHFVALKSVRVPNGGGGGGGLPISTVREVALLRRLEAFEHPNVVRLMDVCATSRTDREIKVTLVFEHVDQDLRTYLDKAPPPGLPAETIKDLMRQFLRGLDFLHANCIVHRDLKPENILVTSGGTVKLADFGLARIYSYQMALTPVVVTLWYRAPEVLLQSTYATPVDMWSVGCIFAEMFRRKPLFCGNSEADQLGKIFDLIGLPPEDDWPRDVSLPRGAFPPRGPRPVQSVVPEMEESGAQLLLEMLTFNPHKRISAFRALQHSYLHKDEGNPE
human kinome (Homo sapiens, UniProt Q13153), sequence (Q13153 whole entry): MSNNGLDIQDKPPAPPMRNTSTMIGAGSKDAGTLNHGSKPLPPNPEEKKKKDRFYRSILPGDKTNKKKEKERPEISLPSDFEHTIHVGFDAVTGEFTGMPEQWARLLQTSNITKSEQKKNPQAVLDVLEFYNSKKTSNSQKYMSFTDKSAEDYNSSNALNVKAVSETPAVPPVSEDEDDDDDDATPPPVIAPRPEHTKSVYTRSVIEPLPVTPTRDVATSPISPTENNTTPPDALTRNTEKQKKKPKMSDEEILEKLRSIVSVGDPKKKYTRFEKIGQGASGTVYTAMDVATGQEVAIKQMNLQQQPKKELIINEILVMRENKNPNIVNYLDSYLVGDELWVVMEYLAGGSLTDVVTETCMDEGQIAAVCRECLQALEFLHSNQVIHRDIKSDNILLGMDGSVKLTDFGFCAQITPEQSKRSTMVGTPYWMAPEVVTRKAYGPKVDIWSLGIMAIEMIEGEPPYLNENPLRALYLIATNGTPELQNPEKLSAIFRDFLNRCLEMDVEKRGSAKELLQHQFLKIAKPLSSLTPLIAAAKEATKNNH
human kinome (Homo sapiens, UniProt Q9P286), sequence (Q9P286 whole entry): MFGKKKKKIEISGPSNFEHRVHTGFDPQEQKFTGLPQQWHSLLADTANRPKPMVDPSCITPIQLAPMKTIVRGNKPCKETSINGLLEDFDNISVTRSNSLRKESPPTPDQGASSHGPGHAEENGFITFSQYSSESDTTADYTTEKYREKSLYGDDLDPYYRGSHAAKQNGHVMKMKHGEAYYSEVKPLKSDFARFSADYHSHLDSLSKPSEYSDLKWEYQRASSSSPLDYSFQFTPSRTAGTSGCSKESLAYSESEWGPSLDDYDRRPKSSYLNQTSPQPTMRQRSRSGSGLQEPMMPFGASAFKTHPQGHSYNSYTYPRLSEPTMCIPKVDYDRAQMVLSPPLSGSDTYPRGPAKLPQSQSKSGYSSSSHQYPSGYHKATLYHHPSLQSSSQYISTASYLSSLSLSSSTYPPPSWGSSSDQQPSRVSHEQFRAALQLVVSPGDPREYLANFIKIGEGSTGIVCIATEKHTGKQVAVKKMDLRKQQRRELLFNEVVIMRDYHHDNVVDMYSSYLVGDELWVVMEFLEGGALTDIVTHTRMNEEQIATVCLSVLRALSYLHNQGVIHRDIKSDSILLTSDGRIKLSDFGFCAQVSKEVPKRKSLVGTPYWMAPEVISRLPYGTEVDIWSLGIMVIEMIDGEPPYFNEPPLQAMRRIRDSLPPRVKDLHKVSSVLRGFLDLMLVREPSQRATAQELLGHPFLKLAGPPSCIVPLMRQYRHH
human kinome (Homo sapiens, UniProt P23458), sequence (P23458 whole entry): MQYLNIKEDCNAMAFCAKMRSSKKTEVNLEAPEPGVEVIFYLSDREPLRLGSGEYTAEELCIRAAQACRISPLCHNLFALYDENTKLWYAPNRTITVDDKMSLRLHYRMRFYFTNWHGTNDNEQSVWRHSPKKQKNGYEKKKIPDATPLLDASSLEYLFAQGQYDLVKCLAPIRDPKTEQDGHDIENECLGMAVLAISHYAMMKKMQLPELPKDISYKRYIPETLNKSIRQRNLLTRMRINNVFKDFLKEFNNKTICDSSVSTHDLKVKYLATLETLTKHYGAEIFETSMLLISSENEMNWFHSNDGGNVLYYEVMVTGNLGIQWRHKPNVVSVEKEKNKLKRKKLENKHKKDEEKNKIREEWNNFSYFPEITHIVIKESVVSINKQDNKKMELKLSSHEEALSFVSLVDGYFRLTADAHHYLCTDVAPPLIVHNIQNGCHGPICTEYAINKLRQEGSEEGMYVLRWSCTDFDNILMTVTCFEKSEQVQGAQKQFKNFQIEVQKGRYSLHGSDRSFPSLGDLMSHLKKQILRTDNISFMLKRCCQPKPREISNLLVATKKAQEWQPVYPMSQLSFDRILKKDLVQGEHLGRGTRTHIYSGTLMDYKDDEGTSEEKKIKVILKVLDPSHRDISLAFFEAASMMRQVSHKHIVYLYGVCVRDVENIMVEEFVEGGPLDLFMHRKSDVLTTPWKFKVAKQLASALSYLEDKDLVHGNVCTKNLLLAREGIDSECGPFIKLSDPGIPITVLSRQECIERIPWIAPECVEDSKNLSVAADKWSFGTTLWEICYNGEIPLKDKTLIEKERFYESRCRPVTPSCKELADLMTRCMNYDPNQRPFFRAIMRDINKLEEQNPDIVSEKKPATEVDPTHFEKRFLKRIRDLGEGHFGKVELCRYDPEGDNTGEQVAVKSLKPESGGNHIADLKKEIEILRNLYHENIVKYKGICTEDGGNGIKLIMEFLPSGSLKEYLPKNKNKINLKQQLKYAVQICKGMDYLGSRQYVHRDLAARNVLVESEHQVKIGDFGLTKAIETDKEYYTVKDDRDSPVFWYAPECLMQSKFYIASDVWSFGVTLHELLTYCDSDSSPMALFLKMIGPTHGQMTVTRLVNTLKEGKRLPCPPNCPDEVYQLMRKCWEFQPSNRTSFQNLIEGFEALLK
human kinome (Homo sapiens, UniProt Q16512), sequence (Q16512 whole entry): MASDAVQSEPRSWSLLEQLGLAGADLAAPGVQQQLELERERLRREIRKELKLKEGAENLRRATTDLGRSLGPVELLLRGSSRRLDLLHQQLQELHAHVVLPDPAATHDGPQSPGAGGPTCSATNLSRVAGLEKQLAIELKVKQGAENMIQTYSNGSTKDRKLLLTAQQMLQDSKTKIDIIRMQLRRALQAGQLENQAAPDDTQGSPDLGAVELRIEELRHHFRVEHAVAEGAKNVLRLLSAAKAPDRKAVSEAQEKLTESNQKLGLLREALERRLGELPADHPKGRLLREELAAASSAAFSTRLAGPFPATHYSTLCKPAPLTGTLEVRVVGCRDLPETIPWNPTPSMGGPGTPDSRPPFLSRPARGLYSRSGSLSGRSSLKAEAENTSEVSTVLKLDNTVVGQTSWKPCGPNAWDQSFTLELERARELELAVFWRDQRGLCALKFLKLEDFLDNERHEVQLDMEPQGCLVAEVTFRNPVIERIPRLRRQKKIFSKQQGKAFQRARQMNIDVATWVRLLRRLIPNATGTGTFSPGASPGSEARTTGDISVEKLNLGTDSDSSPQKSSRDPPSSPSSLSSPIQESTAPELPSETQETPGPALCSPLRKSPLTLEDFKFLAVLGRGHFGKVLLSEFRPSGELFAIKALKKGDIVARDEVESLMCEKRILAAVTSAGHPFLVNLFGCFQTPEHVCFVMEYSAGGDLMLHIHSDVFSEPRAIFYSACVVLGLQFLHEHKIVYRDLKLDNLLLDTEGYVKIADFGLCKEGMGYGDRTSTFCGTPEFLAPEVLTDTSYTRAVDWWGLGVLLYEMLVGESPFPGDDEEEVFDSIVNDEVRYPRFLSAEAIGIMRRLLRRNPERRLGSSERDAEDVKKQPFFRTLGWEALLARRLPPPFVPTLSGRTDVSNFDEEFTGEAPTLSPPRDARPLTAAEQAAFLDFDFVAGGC
human kinome (Homo sapiens, UniProt Q6ZWH5), sequence (Q6ZWH5 whole entry): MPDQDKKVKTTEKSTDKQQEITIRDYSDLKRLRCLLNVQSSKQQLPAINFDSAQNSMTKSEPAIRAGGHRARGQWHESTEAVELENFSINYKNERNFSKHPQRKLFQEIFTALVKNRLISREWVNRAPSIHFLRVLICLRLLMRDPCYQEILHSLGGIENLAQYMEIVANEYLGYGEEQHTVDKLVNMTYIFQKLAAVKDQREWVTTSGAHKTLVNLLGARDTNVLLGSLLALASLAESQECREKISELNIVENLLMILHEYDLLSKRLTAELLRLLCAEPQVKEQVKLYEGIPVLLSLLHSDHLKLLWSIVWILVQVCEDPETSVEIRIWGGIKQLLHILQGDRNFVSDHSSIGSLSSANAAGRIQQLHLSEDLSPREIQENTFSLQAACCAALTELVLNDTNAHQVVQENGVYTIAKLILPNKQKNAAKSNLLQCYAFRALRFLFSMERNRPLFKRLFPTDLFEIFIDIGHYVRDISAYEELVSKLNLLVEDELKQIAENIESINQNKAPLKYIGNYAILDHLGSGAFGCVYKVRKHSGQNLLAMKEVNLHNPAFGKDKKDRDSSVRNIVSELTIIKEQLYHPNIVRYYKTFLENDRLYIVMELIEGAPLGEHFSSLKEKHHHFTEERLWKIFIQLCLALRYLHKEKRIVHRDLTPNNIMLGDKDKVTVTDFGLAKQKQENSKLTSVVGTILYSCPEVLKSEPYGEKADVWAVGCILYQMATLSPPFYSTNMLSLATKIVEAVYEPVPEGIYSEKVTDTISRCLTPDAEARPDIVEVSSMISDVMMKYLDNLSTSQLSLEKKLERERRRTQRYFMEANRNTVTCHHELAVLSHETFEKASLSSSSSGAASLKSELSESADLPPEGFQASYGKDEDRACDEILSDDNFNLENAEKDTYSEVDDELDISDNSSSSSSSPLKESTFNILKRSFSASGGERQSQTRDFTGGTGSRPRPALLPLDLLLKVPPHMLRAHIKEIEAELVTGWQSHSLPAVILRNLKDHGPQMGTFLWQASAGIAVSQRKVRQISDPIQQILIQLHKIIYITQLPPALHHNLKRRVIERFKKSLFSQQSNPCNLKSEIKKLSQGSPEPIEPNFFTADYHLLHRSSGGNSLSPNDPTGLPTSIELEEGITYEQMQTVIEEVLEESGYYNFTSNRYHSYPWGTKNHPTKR

COc1cc(F)ccc1-c1cc(Nc2cc(CS(C)(=N)=O)ccn2)ncc1F (stereo not shown) [VIP152]
remaining binding at 0.1 µM [1]: 100% | remaining binding at 0.1 µM [2]: 100% | remaining binding at 0.1 µM [3]: 100% | remaining binding at 0.1 µM ([4]; PAK3, 100 nM): 100% | remaining binding at 1 µM ([4]; kinase PAK3 (Entrez PAK3), compound concentration 1000 nM): 62% | remaining binding at 0.1 µM [5]: 100% | remaining binding at 0.1 µM [6]: 79% | remaining binding at 0.1 µM [7]: 57% | remaining binding at 0.1 µM ([8]; CDK4-cyclinD1): 85% | remaining binding at 0.1 µM ([8]; CDK4-cyclinD3): 92% | remaining binding at 0.1 µM ([8]; CDK4): 100% | remaining binding at 0.1 µM ([9]; JAK1(JH1domain-catalytic)): 87% | remaining binding at 0.1 µM ([9]; JAK1(JH2domain-pseudokinase)): 100% | remaining binding at 0.1 µM [10]: 96% | remaining binding at 0.1 µM [11]: 89% | remaining binding at 0.1 µM [12]: 100% | remaining binding at 0.1 µM [13]: 100% | remaining binding at 0.1 µM [14]: 99% | remaining binding at 0.1 µM ([15]; PAK1, 100 nM): 100% | remaining binding at 1 µM ([15]; kinase PAK1 (Entrez PAK1), compound concentration 1000 nM): 100% | remaining binding at 0.1 µM ([16]; PAK2, 100 nM): 81% | remaining binding at 1 µM ([16]; kinase PAK2 (Entrez PAK2), compound concentration 1000 nM): 100% | remaining binding at 0.1 µM [17]: 100% | remaining binding at 0.1 µM [18]: 64% | remaining binding at 0.1 µM [19]: 100% | remaining binding at 0.1 µM ([20]; PKN1, 100 nM): 100% | remaining binding at 1 µM ([20]; kinase PKN1 (Entrez PKN1), compound concentration 1000 nM): 88% | remaining binding at 0.1 µM [21]: 87% | remaining binding at 0.1 µM ([22]; NEK10, 100 nM): 97% | remaining binding at 1 µM ([22]; kinase NEK10 (Entrez NEK10), compound concentration 1000 nM): 77% | remaining binding at 0.1 µM [23]: 100% | remaining binding at 1 µM [24]: 78% | remaining binding at 0.1 µM ([25]; PLK3, 100 nM): 91% | remaining binding at 1 µM ([25]; kinase PLK3 (Entrez PLK3), compound concentration 1000 nM): 92% | remaining binding at 1 µM [26]: 73% | remaining binding at 0.1 µM ([27]; PAK7, 100 nM): 100% | remaining binding at 1 µM ([27]; kinase PAK7 (Entrez PAK7), compound concentration 1000 nM): 78% | remaining binding at 0.1 µM [28]: 91% | remaining binding at 0.1 µM [29]: 100% | remaining binding at 0.1 µM [30]: 100%
